Source: paper PMC8476002, “Bergamottin a CYP3A inhibitor found in grapefruit juice inhibits prostate cancer cell growth by downregulating androgen receptor signaling and promoting G0/G1 cell cycle block and apoptosis” (PLoS ONE, 2021)
pIC50: −log10 of the molar value.

Legend:
MDAPCa2b cells [1] = assay: Clonogenic assay, MDAPCa2b; assay type: cell-based, human; conditions: 5μM and 10μM, 3 weeks
Protocol: For clonogenic assay, cells were plated in 6 well plates (10,000 cells) for 48 h and then treated with indicated amounts of bergamottin and vehicle control (DMSO). After 3 weeks, the colonies were fixed, stained (0.75% crystal violet, 50% ethanol and 1.75% formaldehyde) and counted. The assay was repeated three times.

LNCaP cells = assay: Cell cycle analysis (propidium iodide, flow cytometry), LNCaP; assay type: cell-based, human
Protocol: Cell cycle analysis was performed after staining the cells with propidium iodide (PI). For long term bergamottin treatment (96 hrs.) cells were plated at 25–30% confluence and for short term bergamottin treatment (48 hrs.) they were plated at 30–35% confluence. After completion of specified treatment the cells were trypsinized washed with PBS and fixed in 70% ethanol and then stained with PI in nicoletti buffer (propidium iodide 50 μg/ml, 0.1% sodium citrate, 0.1% triton X-100, RNase 1 mg/ml, in DPBS). Cells were analyzed using C6 Accuri flow cytometer (Becton Dickinson, Mountainview, CA). FlowJo software was used to gate and remove the debris (gate on SSC and FSC) and aggregates (FL2 A and FL2H) from the analysis. Watson pragmatic and Dean-Jett -Fox methods was used to assign percentage frequencies to cells present in the different cell cycle stages.

[2] = system: PARP cleavage in MDAPCa2b cells; assay: Western blot of PARP cleavage, MDAPCa2b; assay type: cell-based, human; conditions: 5 and 10 μM for 96 hrs. and 20 μM for 48 hrs.
Protocol: (§1) Cells were plated at 25–30% confluence when maintained in complete media. When the cells required DHT tretment and media replacement to charcoal stripped serum media (CSSM) they were plated at 35–40% confluence. Bergamottin is dissolved in DMSO (vehicle control) and the amount of DMSO at each treatment group was kept constant. After the completion of the treatment cells were washed in phosphate buffer (PBS) containing 2mMEDTA and 2mM EGTA and lysed in RIPA buffer (50 mM TRIS, 150 mM NaCl, 1% NP40, 0.5% sodium deoxycholate, 0.1% SDS, 2mM EDTA, 2mM EGTA) supplemented with protease and phosphatase inhibitors for total protein isolation. Protein estimation was performed using micro BCA assay and equal protein amponts were loaded on SDS-PAGE gels for western analysis. GAPDH was used as an internal control for total protein. Infrared fluorescent-labeled secondary antibodies were used for detection using Odyssey CLx. The bands were quantified using Odyssey software, which calculates pixel density and automatically takes an area adjacent to each band for background corrections.
Cells were plated in complete media without antibiotics on poly D-lysine-coated plates (80,000 cells per 6 well). […]

[3] = system: total AR in MDAPCa2b cells; assay: Western blotting of total AR, MDAPCa2b; assay type: cell-based, human; conditions: bergamottin 10μM, CSSM
Protocol: as §1

[4] = system: several other cancer cell types; parameters: method as in PMID 25130169, PMID 27222242, PMID 10552768, PMID 28726768, PMID 26911804; conditions: read-out: IC50 for growth of several other cancer cell types; cited from earlier work
[5] = system: AR nuclear localization in MDAPCa2b cells; assay: Confocal microscopy of AR nuclear localization, MDAPCa2b; assay type: cell-based, human; conditions: bergamottin 10μM, versus DMSO
Protocol: (§2) Cells were seeded into 35 mm Glass bottom dish (Cellvis catalog# D35C4-20-1.5-N) in complete media; media was changed to CSSM prior to DHT treatment. The cells were fixed in 4% paraformaldehyde for 20 minutes and permeabilized using permeabilizing buffer (0.2% Tween 20 in PBS) for 5 minutes. Cells were blocked using 10% goat serum diluted in permeabilizing buffer with 1% BSA for 15 minutes. Primary antibodies were diluted at 1:100 in staining buffer (1% BSA in PBS) and incubated for 2 hours at room temperature. Cells were washed three times (5 minutes each) in PBS. Secondary antibodies, TRITC-conjugated Donkey Anti-rabbit (711-025-152) was from Jackson immuno research, West Grove, PA was diluted at 1:100 in staining buffer and incubated for 60 minutes at room temperature. Cells were washed three times (5 minutes) in PBS and stained with 1 μg/mL DAPI (4’, 6-diamidino-2-phenylindole) in PBS for 5 minutes at room temperature. The cells were stored in PBS at 4°C until imaging was completed.
(§3) Cells were imaged using confocal laser scanning microscopy on a Nikon A1R using a galvano scanner and a 60× Apo-TIRF oil immersion objective. NIS Elements software form Nikon was used for recording the data.

MDAPCa2b cells [6] = assay: TUNEL apoptosis detection assay, MDAPCa2b; assay type: cell-based, human; conditions: 10μM, 4 days
Protocol: To detect apoptosis in the cells after bergamottin treatment In Situ cell death detection kit from Sigma-Aldrich (St. Louis, MO) was used. This apoptosis detection kit fluorescently labels the single and double-stranded DNA breaks caused due to apoptosis using terminal deoxynucleotidyl transferase (TUNEL-reaction). The cells were plated in poly- D- lysine coated 35 mm Glass bottom dish (Cellvis catalog# D35C4-20-1.5-N), treated with bergamottin for the specified time, and dosage and then stained with the kit reagents. The kit recommended protocol was followed. After the staining, the confocal microscope was used to procure images of the cells. The TUNEL assay preferentially labels apoptosis in comparison to necrosis and positive apoptosis is recognized when cells incorporate fluorescent labelled nucleotide (Ex 450 to 500nm and Em 515 to 565-green).

total AR in LNCaP cells = assay: Western blotting of total AR, LNCaP; assay type: cell-based, human; conditions: bergamottin 10μM, CSSM
Protocol: as §1

[7] = system: AR nuclear localization in LNCaP cells; assay: Confocal microscopy of AR nuclear localization, LNCaP; assay type: cell-based, human; conditions: bergamottin 10μM, versus DMSO
Protocol: as §2, §3

Question: For `CC(C)=CCC/C(C)=C/COc1c2ccoc2cc2oc(=O)ccc12` [bergamottin], which number of colonies (MDAPCa2b cells [1]) is on record?
Answer: Its number of colonies is “significantly reduced the number of colonies”.

Question: And the “G1 frequency, Dean-Jett-Fox” value (LNCaP cells; Berg 5μM, 96 hrs.)?
Answer: The value was 90.81 ±1.7%.

Question: And the “G2 frequency, Dean-Jett-Fox” value (LNCaP cells; Berg 5μM, 96 hrs.)?
Answer: Its value is 10.53 ±1.0%.

Question: And the “G2 frequency, Watson Pragmatic” value (LNCaP cells; Berg 5μM, 96 hrs.)?
Answer: The value was 8.59 ±3.0%.

Question: And the “S frequency, Dean-Jett-Fox” value (LNCaP cells; Berg 5μM, 96 hrs.)?
Answer: Its value is -0.3 ±2.3%.

Question: And the “S frequency, Watson Pragmatic” value (LNCaP cells; Berg 5μM, 96 hrs.)?
Answer: The value was 0.32±4.3%.

Question: What about the “G1 frequency, Dean-Jett-Fox” value (LNCaP cells; Berg 10μM, 96 hrs.) of the same compound?
Answer: The value was 95.1 ±3.4%.

Question: And the “G2 frequency, Dean-Jett-Fox” value (LNCaP cells; Berg 10μM, 96 hrs.)?
Answer: Its value is 0.22 ±0.4%.

Question: What about the “G2 frequency, Watson Pragmatic” value (LNCaP cells; Berg 10μM, 96 hrs.) of the same compound?
Answer: The value was 10.07 ±0.9%.

Question: What about the “S frequency, Dean-Jett-Fox” value (LNCaP cells; Berg 10μM, 96 hrs.) of the same compound?
Answer: The value was -0.03 ±1.1%.

Question: What about the “S frequency, Watson Pragmatic” value (LNCaP cells; Berg 10μM, 96 hrs.) of the same compound?
Answer: Its value is -1.17 ±4.5%.

Question: And the “G1 frequency, Dean-Jett-Fox” value (LNCaP cells; Berg 20μM, 48 hrs.)?
Answer: The value was 86.7 ±2.3%.

Question: And the “G2 frequency, Dean-Jett-Fox” value (LNCaP cells; Berg 20μM, 48 hrs.)?
Answer: Its value is 15.3 ±1.0%.

Question: And the “G2 frequency, Watson Pragmatic” value (LNCaP cells; Berg 20μM, 48 hrs.)?
Answer: The value was 13.4 ±4.3%.

Question: What about the “S frequency, Dean-Jett-Fox” value (LNCaP cells; Berg 20μM, 48 hrs.) of the same compound?
Answer: Its value is -9.8 ±3.0%.

Question: What about the “S frequency, Watson Pragmatic” value (LNCaP cells; Berg 20μM, 48 hrs.) of the same compound?
Answer: Its value is 4.8 ±3.5%.

Question: And the “G1 frequency, Dean-Jett-Fox” value (LNCaP cells; Berg 30μM, 48 hrs.)?
Answer: Its value is 96.2 ±3.6%.

Question: What about the “G2 frequency, Dean-Jett-Fox” value (LNCaP cells; Berg 30μM, 48 hrs.) of the same compound?
Answer: The value was 7.7 ±0.9%.

Question: What about the “G2 frequency, Watson Pragmatic” value (LNCaP cells; Berg 30μM, 48 hrs.) of the same compound?
Answer: Its value is 6.3 ±2.3%.

Question: What about the “S frequency, Dean-Jett-Fox” value (LNCaP cells; Berg 30μM, 48 hrs.) of the same compound?
Answer: The value was -8.4 ±4.5%.

Question: What about the “S frequency, Watson Pragmatic” value (LNCaP cells; Berg 30μM, 48 hrs.) of the same compound?
Answer: The value was 3.7 ±2.6%.

Question: And the PARP cleavage [2]?
Answer: The PARP cleavage was “showed apoptosis (cleaved PARP)”.

Question: And the “downregulation of total AR levels” value [3]?
Answer: The value was 50%.

Question: What about the pIC50 [4] of the same compound?
Answer: Its pIC50 is 4.00 to 4.52.

Question: And the “active AR migration to the nucleus with DHT induction (confocal)” value [5]?
Answer: Its value is “significantly reduced”.

Question: What about the “DNA breaks (TUNEL, apoptosis)” value (MDAPCa2b cells [6]) of the same compound?
Answer: The value was “increased DNA breaks”.

Question: And the “downregulation of total AR levels” value (total AR in LNCaP cells)?
Answer: The value was 50%.

Question: And the “active AR migration to the nucleus with DHT induction (confocal)” value [7]?
Answer: Its value is “significantly reduced”.
